Values of other authors, collected in patent publication US9125860B2, “Phosphate free oral care compositions based on magnolia antibacterial agent” (Colgate-Palmolive Company, priority 2010, dated 2015).

System: S. mutans, F. nucleatum, V. parvula, A. naslundii, P. gingivitis
Settings: representative oral bacteria; values not given

| Compound | bactericidal properties in MIC test, in words |
| --- | --- |
| CCCCc1ccc(O)c(-c2cc(CCCC)ccc2O)c1 [butylmagnolol] | demonstrated bactericidal properties |
| C=CCc1ccc(O)c(-c2ccc(O)c(CC=C)c2)c1 [honokiol] | demonstrated bactericidal properties |
| CC(C)c1ccc(O)c(-c2cc(C(C)C)ccc2O)c1 [isopropylmagnolol] | demonstrated bactericidal properties |
| C=CCc1ccc(O)c(-c2cc(CC=C)ccc2O)c1 [magnolol] | demonstrated bactericidal properties |
| CCCc1ccc(O)c(-c2ccc(O)c(CCC)c2)c1 [tetrahydrohonokiol] | demonstrated bactericidal properties |
| CCCc1ccc(O)c(-c2cc(CCC)ccc2O)c1 [tetrahydromagnolol] | demonstrated bactericidal properties |
| butylhonokiol | demonstrated bactericidal properties |
| isopropylhonokiol | demonstrated bactericidal properties |
| propylhonokiol | demonstrated bactericidal properties |
| propylmagnolol | demonstrated bactericidal properties |
